US20260069584A1, “METHODS OF TREATING CHRONIC MYELOID LEUKEMIA USING THE TYROSINE KINASE INHIBITOR VODOBATINIB” (Sun Pharma Advanced Research Company Ltd., priority 2022, published 2026)

Test: Part B: safety, treatment-emergent adverse events, DLT and MTD
Assay type: in vivo
Text: For the purpose of the present invention, the adverse events were graded as per the National Cancer Institute's, Common Terminology Criteria for Adverse Events (NCI-CTCAE) Version 4.03 and Version 5.0 (https://evs.nci.nih.gov/ftp1/CTCAE/About.html). It is a descriptive terminology which can be utilized for Adverse Event (AE) reporting.
AEs were graded as per NCI-CTCAE Version 5.0. In the present study, along with others most common AEs for which patients were monitored were thrombocytopenia, neutropenia and anemia, any AE reported by the patient after the completion of AE collection period and considered related to the study drug was reported.
Dose Limiting Toxicity (DLT) is defined as the occurrence of any of the following unless clearly and incontrovertibly related to the underlying disease. The hematological DLTs were defined as per the Phase of CML: • a) Grade 3 or higher, or other non-hematological toxicity, including nausea, vomiting and diarrhea, and refractory to standard antiemetic therapy except alopecia and nail disorders; • b) Missed ≥25% of doses over 28 days due to toxicity in Cycle 1; and • c) Any grade of toxicity requiring dose reduction or discontinuation of IMP within the 28-days DLT assessment period (Cycle 1).
Safety Parameters: Parts B and C: Descriptive summaries were provided for the safety variables collected. Continuous variables were summarized using mean, standard deviation, minimum, median, and maximum. Categorical variables were summarized using frequency counts and percentages. For time-to-event variables, other percentiles were presented. In addition, summaries of AEs by intensity, seriousness, frequency, and relationship to IMP are presented. Adverse events (AE) s were coded using the Medical Dictionary for Regulatory Activities (MedDRA) and summarized by System Organ Class (SOC) and Preferred Term (PT).
In this study, the dose-escalation cohort started with an accelerated titration study design (ATD) and shifted to a 3±3 design when subjects in the preceding ATD cohort experienced either grade 2 or higher adverse events (AEs) or dose-limiting toxicity (DLT) during Cycle 1 that was not clearly and incontrovertibly related to the underlying disease or concomitant medications. The DLT period consisted of 28 days (Cycle 1). Subjects experiencing DLTs were managed with dose delays and/or discontinuation and continued in the study until disease progression. Decisions to advance to a succeeding dose level occurred after the evaluation of safety and tolerability data for a given dose level.
For the cohorts, where the 3±3 design applies, 3 subjects were enrolled initially. If 2 of these subjects experienced a Grade 2 or more toxicity (that was not clearly and incontrovertibly related to the underlying disease or concomitant medications), subsequent cohorts were escalated according to smaller increments. Further, if there were no DLTs in the first 3 subjects, dose escalation to the next higher dose level was allowed to proceed. If 1 of the 3 subjects experienced a DLT, that dose level was expanded to 6 subjects (3 additional subjects were enrolled). If 2 subjects at a given dose level experienced a DLT, the MTD was considered to have been exceeded. The next lower dose level was expanded to 6 subjects, or if 6 subjects had already been enrolled and no more than 1 of the 6 subjects experienced a DLT, then this lower dose level was considered the MTD. Additional subjects were enrolled in dose escalation cohorts for further assessment of safety and efficacy of the compound of Formula 1 at doses that were tolerated (i.e., doses that have <2 DLTs in 6 enrolled subjects or <1 DLT in 3 enrolled subjects). Thus 204 mg was arrived at as MTD. A subject experiencing a DLT was allowed to continue therapy with a reduced dose. Subjects who experienced a DLT and recovered were treated at the next lower dose level until disease progression or other events requiring further dose reduction existed. […]

Cc1ccc(C(=O)NNC(=O)c2c(C)cccc2Cl)cc1C#Cc1cnc2ccccc2c1 [compound of Formula I, N′-(2-chloro-6-methylbenzoyl)-4-methyl-3-[2-(3-quinolyl)ethynyl]-benzohydrazide]
anemia (grade 3 or 4): 13%
diarrhea (grade 3 or 4): 2%
thrombocytopenia (grade 3 or 4): 18.8%
deaths during the study (human, in vivo): 5
daily doses at which dose-limiting toxicities were present (human, in vivo, 28 days): 240 mg
dose modification (of patients): 20.7%
temporary dose interruptions (of patients): 37.7%
MTD (maximum tolerated dose) (oral, once daily): 204 mg
deaths considered related to the compound (out of 5 deaths): 1
TEAEs, any grade (overall 53 patients): 96.2%
grade 3 or 4 TEAEs (overall 53 patients): 64.1%
highest efficacious and tolerable daily dose (patients with prior TKI exposure, mutations and ACAs): 204 mg
All TEAEs, Any grade (≤2 prior TKIs (N = 18)): 16 No of pts
All TEAEs, Grade 3/4 (≤2 prior TKIs (N = 18)): 6 No of pts
Amylase increased, Any grade (≤2 prior TKIs (N = 18)): 0 No of pts
Amylase increased, Grade 3/4 (≤2 prior TKIs (N = 18)): 0 No of pts
Anemia, Any grade (≤2 prior TKIs (N = 18)): 2 No of pts
Anemia, Grade 3/4 (≤2 prior TKIs (N = 18)): 2 No of pts
Back pain, Any grade (≤2 prior TKIs (N = 18)): 1 No of pts
Back pain, Grade 3/4 (≤2 prior TKIs (N = 18)): 0 No of pts
Constipation, Any grade (≤2 prior TKIs (N = 18)): 2 No of pts
Constipation, Grade 3/4 (≤2 prior TKIs (N = 18)): 0 No of pts
Cough, Any grade (≤2 prior TKIs (N = 18)): 3 No of pts
Cough, Grade 3/4 (≤2 prior TKIs (N = 18)): 0 No of pts
Death, Any grade (≤2 prior TKIs (N = 18)): 3 No of pts
Death, Grade 3/4 (≤2 prior TKIs (N = 18)): 0 No of pts
Decreased appetite, Any grade (≤2 prior TKIs (N = 18)): 1 No of pts
Decreased appetite, Grade 3/4 (≤2 prior TKIs (N = 18)): 0 No of pts
Diarrhoea, Any grade (≤2 prior TKIs (N = 18)): 1 No of pts
Diarrhoea, Grade 3/4 (≤2 prior TKIs (N = 18)): 0 No of pts
Fatigue, Any grade (≤2 prior TKIs (N = 18)): 2 No of pts
Fatigue, Grade 3/4 (≤2 prior TKIs (N = 18)): 0 No of pts
Headache, Any grade (≤2 prior TKIs (N = 18)): 1 No of pts
Headache, Grade 3/4 (≤2 prior TKIs (N = 18)): 0 No of pts
Lipase increased, Any grade (≤2 prior TKIs (N = 18)): 0 No of pts
Lipase increased, Grade 3/4 (≤2 prior TKIs (N = 18)): 0 No of pts
Myalgia, Any grade (≤2 prior TKIs (N = 18)): 1 No of pts
Myalgia, Grade 3/4 (≤2 prior TKIs (N = 18)): 0 No of pts
Nasopharyngitis, Any grade (≤2 prior TKIs (N = 18)): 3 No of pts
Nasopharyngitis, Grade 3/4 (≤2 prior TKIs (N = 18)): 0 No of pts
Nausea, Any grade (≤2 prior TKIs (N = 18)): 0 No of pts
Nausea, Grade 3/4 (≤2 prior TKIs (N = 18)): 0 No of pts
Neutropenia, Any grade (≤2 prior TKIs (N = 18)): 2 No of pts
Neutropenia, Grade 3/4 (≤2 prior TKIs (N = 18)): 2 No of pts
Pruritis, Any grade (≤2 prior TKIs (N = 18)): 2 No of pts
Pruritis, Grade 3/4 (≤2 prior TKIs (N = 18)): 0 No of pts
Pyrexia, Any grade (≤2 prior TKIs (N = 18)): 2 No of pts
Pyrexia, Grade 3/4 (≤2 prior TKIs (N = 18)): 0 No of pts
Rhinitis, Any grade (≤2 prior TKIs (N = 18)): 2 No of pts
Rhinitis, Grade 3/4 (≤2 prior TKIs (N = 18)): 0 No of pts
SAEs, Any grade (≤2 prior TKIs (N = 18)): 6 No of pts
SAEs, Grade 3/4 (≤2 prior TKIs (N = 18)): 2 No of pts
TEAEs Leading to drug withdrawal, Any grade (≤2 prior TKIs (N = 18)): 3 No of pts
TEAEs Leading to drug withdrawal, Grade 3/4 (≤2 prior TKIs (N = 18)): 0 No of pts
TEAEs Related to comp of Formula I, Any grade (≤2 prior TKIs (N = 18)): 12 No of pts
TEAEs Related to comp of Formula I, Grade 3/4 (≤2 prior TKIs (N = 18)): 3 No of pts
TEAEs: Dose discontinued and restarted, Any grade (≤2 prior TKIs (N = 18)): 5 No of pts
TEAEs: Dose discontinued and restarted, Grade 3/4 (≤2 prior TKIs (N = 18)): 2 No of pts
TEAEs: Dose modifications, Any grade (≤2 prior TKIs (N = 18)): 1 No of pts
TEAEs: Dose modifications, Grade 3/4 (≤2 prior TKIs (N = 18)): 1 No of pts
Thrombocytopenia, Any grade (≤2 prior TKIs (N = 18)): 7 No of pts
Thrombocytopenia, Grade 3/4 (≤2 prior TKIs (N = 18)): 3 No of pts
Vomiting, Any grade (≤2 prior TKIs (N = 18)): 0 No of pts
Vomiting, Grade 3/4 (≤2 prior TKIs (N = 18)): 0 No of pts
All TEAEs, Any grade (≥3 prior TKIs (N = 35)): 35 No of pts
All TEAEs, Grade 3/4 (≥3 prior TKIs (N = 35)): 28 No of pts
Amylase increased, Any grade (≥3 prior TKIs (N = 35)): 5 No of pts
Amylase increased, Grade 3/4 (≥3 prior TKIs (N = 35)): 4 No of pts
Anemia, Any grade (≥3 prior TKIs (N = 35)): 9 No of pts
Anemia, Grade 3/4 (≥3 prior TKIs (N = 35)): 5 No of pts
Back pain, Any grade (≥3 prior TKIs (N = 35)): 6 No of pts
Back pain, Grade 3/4 (≥3 prior TKIs (N = 35)): 0 No of pts
Constipation, Any grade (≥3 prior TKIs (N = 35)): 6 No of pts
Constipation, Grade 3/4 (≥3 prior TKIs (N = 35)): 0 No of pts
Cough, Any grade (≥3 prior TKIs (N = 35)): 8 No of pts
Cough, Grade 3/4 (≥3 prior TKIs (N = 35)): 0 No of pts
Death, Any grade (≥3 prior TKIs (N = 35)): 2 No of pts
Death, Grade 3/4 (≥3 prior TKIs (N = 35)): 0 No of pts
Decreased appetite, Any grade (≥3 prior TKIs (N = 35)): 5 No of pts
Decreased appetite, Grade 3/4 (≥3 prior TKIs (N = 35)): 0 No of pts
Diarrhoea, Any grade (≥3 prior TKIs (N = 35)): 11 No of pts
Diarrhoea, Grade 3/4 (≥3 prior TKIs (N = 35)): 1 No of pts
Fatigue, Any grade (≥3 prior TKIs (N = 35)): 5 No of pts
Fatigue, Grade 3/4 (≥3 prior TKIs (N = 35)): 0 No of pts
Headache, Any grade (≥3 prior TKIs (N = 35)): 7 No of pts
Headache, Grade 3/4 (≥3 prior TKIs (N = 35)): 0 No of pts
Lipase increased, Any grade (≥3 prior TKIs (N = 35)): 5 No of pts
Lipase increased, Grade 3/4 (≥3 prior TKIs (N = 35)): 4 No of pts
Myalgia, Any grade (≥3 prior TKIs (N = 35)): 6 No of pts
Myalgia, Grade 3/4 (≥3 prior TKIs (N = 35)): 0 No of pts
Nasopharyngitis, Any grade (≥3 prior TKIs (N = 35)): 3 No of pts
Nasopharyngitis, Grade 3/4 (≥3 prior TKIs (N = 35)): 0 No of pts
Nausea, Any grade (≥3 prior TKIs (N = 35)): 8 No of pts
Nausea, Grade 3/4 (≥3 prior TKIs (N = 35)): 0 No of pts
Neutropenia, Any grade (≥3 prior TKIs (N = 35)): 6 No of pts
Neutropenia, Grade 3/4 (≥3 prior TKIs (N = 35)): 5 No of pts
Pruritis, Any grade (≥3 prior TKIs (N = 35)): 4 No of pts
Pruritis, Grade 3/4 (≥3 prior TKIs (N = 35)): 0 No of pts
Pyrexia, Any grade (≥3 prior TKIs (N = 35)): 6 No of pts
Pyrexia, Grade 3/4 (≥3 prior TKIs (N = 35)): 1 No of pts
Rhinitis, Any grade (≥3 prior TKIs (N = 35)): 4 No of pts
Rhinitis, Grade 3/4 (≥3 prior TKIs (N = 35)): 0 No of pts
SAEs, Any grade (≥3 prior TKIs (N = 35)): 14 No of pts
SAEs, Grade 3/4 (≥3 prior TKIs (N = 35)): 10 No of pts
TEAEs Leading to drug withdrawal, Any grade (≥3 prior TKIs (N = 35)): 3 No of pts
TEAEs Leading to drug withdrawal, Grade 3/4 (≥3 prior TKIs (N = 35)): 2 No of pts
TEAEs Related to comp of Formula I, Any grade (≥3 prior TKIs (N = 35)): 23 No of pts
TEAEs Related to comp of Formula I, Grade 3/4 (≥3 prior TKIs (N = 35)): 11 No of pts
TEAEs: Dose discontinued and restarted, Any grade (≥3 prior TKIs (N = 35)): 15 No of pts
TEAEs: Dose discontinued and restarted, Grade 3/4 (≥3 prior TKIs (N = 35)): 10 No of pts
TEAEs: Dose modifications, Any grade (≥3 prior TKIs (N = 35)): 10 No of pts
TEAEs: Dose modifications, Grade 3/4 (≥3 prior TKIs (N = 35)): 5 No of pts
Thrombocytopenia, Any grade (≥3 prior TKIs (N = 35)): 17 No of pts
Thrombocytopenia, Grade 3/4 (≥3 prior TKIs (N = 35)): 7 No of pts
Vomiting, Any grade (≥3 prior TKIs (N = 35)): 7 No of pts
Vomiting, Grade 3/4 (≥3 prior TKIs (N = 35)): 0 No of pts
